Assays:
soybean [1] = assay: Test C postemergence; format: in vivo, Glycine max; conditions: 10 days
Procedure, shortened: (§1)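 Seeds sown in loam soil–sand blend received a directed preemergence soil spray of test chemical in non-phytotoxic solvent with surfactant; postemergence plants (2–10 cm, one- to two-leaf stage) were sprayed with the same formulation. Greenhouse-held 10 days, then visually rated for injury versus untreated controls, 0 (no effect) to 100 (complete control).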

oat, wild [2] = assay: Test C postemergence; format: in vivo, Avena fatua; conditions: 10 days
Procedure, shortened: as §1

corn [3] = assay: Test C preemergence; format: in vivo, Zea mays; conditions: 0 to 100 scale (0 no effect, 100 complete control); for Corn plant response rating: Test C, preemergence, 125 g ai/ha
Procedure, shortened: as §1

green foxtail [4] = assay: Test C preemergence; format: in vivo, Setaria viridis; conditions: 0 to 100 scale (0 no effect, 100 complete control); for Plant response rating, Foxtail, Green: Preemergence, 500 g ai/ha, visual rating after 10 days; for Foxtail, Green plant response rating: Test C, preemergence, 125 g ai/ha
Procedure, shortened: as §1

pigweed, palmer [5] = assay: Test C preemergence; format: in vivo, Amaranthus palmeri; conditions: 0 to 100 scale (0 no effect, 100 complete control); for Plant response rating, Pigweed, Palmer: Preemergence, 500 g ai/ha, visual rating after 10 days; for Pigweed, Palmer plant response rating: Test C, preemergence, 125 g ai/ha
Procedure, shortened: as §1

ducksalad = assay: Test D flooded paddy test; format: in vivo, Heteranthera limosa; conditions: 250 g ai/ha, applied to paddy water, visual rating after 13 to 14 days, scale 0 to 100 (0 no effect, 100 complete control)
Procedure, shortened: (§2)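 Plants at the 2-leaf stage were grown in pots flooded to 3 cm, and compound was applied directly into the paddy water, with depth kept throughout. After 13–14 days in a greenhouse, injury was rated visually against untreated controls on a 0–100 scale (100 = complete control); a dash means not tested.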

corn [6] = assay: Test C postemergence; format: in vivo, Zea mays; conditions: 10 days
Procedure, shortened: as §1

kochia [7] = assay: Test C postemergence; format: in vivo, Bassia scoparia; conditions: 10 days
Procedure, shortened: as §1

ryegrass, Italian [8] = assay: Test C preemergence; format: in vivo, Lolium multiflorum; conditions: 0 to 100 scale (0 no effect, 100 complete control); for Plant response rating, Ryegrass, Italian: Preemergence, 500 g ai/ha, visual rating after 10 days; for Ryegrass, Italian plant response rating: Test C, preemergence, 125 g ai/ha
Procedure, shortened: as §1

ragweed [9] = assay: Test C preemergence; format: in vivo, Ambrosia artemisiifolia; conditions: 0 to 100 scale (0 no effect, 100 complete control); for Plant response rating, Ragweed: Preemergence, 500 g ai/ha, visual rating after 10 days; for Ragweed plant response rating: Test C, preemergence, 125 g ai/ha
Procedure, shortened: as §1

oat, wild [10] = assay: Test C preemergence; format: in vivo, Avena fatua; conditions: 0 to 100 scale (0 no effect, 100 complete control); for Plant response rating, Oat, Wild: Preemergence, 500 g ai/ha, visual rating after 10 days; for Oat, Wild plant response rating: Test C, preemergence, 125 g ai/ha
Procedure, shortened: as §1

green foxtail [11] = assay: Test C postemergence; format: in vivo, Setaria viridis; conditions: 10 days
Procedure, shortened: as §1

barnyardgrass [12] = assay: Test C preemergence; format: in vivo, Echinochloa crusgalli; conditions: 0 to 100 scale (0 no effect, 100 complete control); for Plant response rating, Barnyardgrass: Preemergence, 500 g ai/ha, visual rating after 10 days; for Barnyardgrass plant response rating: preemergence, 125 g ai/ha
Procedure, shortened: as §1

horseweed = assay: Test C postemergence; format: in vivo, Erigeron canadensis; conditions: 10 days
Procedure, shortened: as §1

ragweed [13] = assay: Test C postemergence; format: in vivo, Ambrosia artemisiifolia; conditions: 10 days
Procedure, shortened: as §1

barnyardgrass [14] = assay: Test D flooded paddy test; format: in vivo, Echinochloa crus-galli; conditions: 250 g ai/ha, applied to paddy water, visual rating after 13 to 14 days, scale 0 to 100 (0 no effect, 100 complete control)
Procedure, shortened: as §2

soybean [15] = assay: Test C preemergence; format: in vivo, Glycine max; conditions: 0 to 100 scale (0 no effect, 100 complete control); for Plant response rating, Soybean: Preemergence, 500 g ai/ha, visual rating after 10 days; for Soybean plant response rating: Test C, preemergence, 125 g ai/ha
Procedure, shortened: as §1

sedge, umbrella = assay: Test D flooded paddy test; format: in vivo, Cyperus difformis; conditions: 250 g ai/ha, applied to paddy water, visual rating after 13 to 14 days, scale 0 to 100 (0 no effect, 100 complete control)
Procedure, shortened: as §2

blackgrass [16] = assay: Test C postemergence; format: in vivo, Alopecurus myosuroides; conditions: 10 days
Procedure, shortened: as §1

galium = assay: Test C postemergence; format: in vivo, Galium aparine; conditions: 10 days
Procedure, shortened: as §1

pigweed, palmer [17] = assay: Test C postemergence; format: in vivo, Amaranthus palmeri; conditions: 10 days
Procedure, shortened: as §1

barnyardgrass [18] = assay: Test C postemergence; format: in vivo, Echinochloa crusgalli; conditions: 10 days
Procedure, shortened: as §1

wheat [19] = assay: Test C preemergence; format: in vivo, Triticum aestivum; conditions: 0 to 100 scale (0 no effect, 100 complete control); for Plant response rating, Wheat: Preemergence, 500 g ai/ha, visual rating after 10 days; for Wheat plant response rating: Test C, preemergence, 125 g ai/ha
Procedure, shortened: as §1

kochia [20] = assay: Test C preemergence; format: in vivo, Bassia scoparia; conditions: 0 to 100 scale (0 no effect, 100 complete control); for Plant response rating, Kochia: Preemergence, 500 g ai/ha, visual rating after 10 days; for Kochia plant response rating: Test C, preemergence, 125 g ai/ha
Procedure, shortened: as §1

wheat [21] = assay: Test C postemergence; format: in vivo, Triticum aestivum; conditions: 10 days
Procedure, shortened: as §1

blackgrass [22] = assay: Test C preemergence; format: in vivo, Alopecurus myosuroides; conditions: 0 to 100 scale (0 no effect, 100 complete control); for Plant response rating, Blackgrass: Preemergence, 500 g ai/ha, visual rating after 10 days; for Blackgrass plant response rating: Test C, preemergence, 125 g ai/ha
Procedure, shortened: as §1

rice = assay: Test D flooded paddy test; format: in vivo, Oryza sativa; conditions: 250 g ai/ha, applied to paddy water, visual rating after 13 to 14 days, scale 0 to 100 (0 no effect, 100 complete control)
Procedure, shortened: as §2

ryegrass, Italian [23] = assay: Test C postemergence; format: in vivo, Lolium multiflorum; conditions: 10 days
Procedure, shortened: as §1

[24] = 125 g ai/ha, postemergence, 0 to 100 scale, 0 no effect, 100 complete control
[25] = Postemergence, 500 g ai/ha, visual 0 to 100 scale (0 no effect, 100 complete control)

## COc1c(F)cc(-n2cnc(C(C)C)n2)cc1C(=O)N1C[C@H](C)Oc2c(Cl)cccc21 [Compound 177]
Soybean [1]; [24]
  Plant response rating, Soybean: 100
Soybean [1]; [25]
  Plant response rating, Soybean: 100
oat, wild [2]; [24]
  Plant response rating, Oat, Wild: 60
oat, wild [2]; [25]
  Plant response rating, Oat, Wild: 80
Corn [3]; Preemergence, 500 g ai/ha, visual rating after 10 days
  Plant response rating, Corn: 30
Corn [3]
  Corn plant response rating: 30
Green foxtail [4]
  Plant response rating, Foxtail, Green: 100
  Foxtail, Green plant response rating: 100
pigweed, palmer [5]
  Plant response rating, Pigweed, Palmer: 100
  Pigweed, Palmer plant response rating: 100
ducksalad
  Plant response rating, Ducksalad (Flood): 50
Corn [6]; [24]
  Plant response rating, Corn: 40
Corn [6]; [25]
  Plant response rating, Corn: 60
Kochia [7]; [24]
  Plant response rating, Kochia: 90
Kochia [7]; [25]
  Plant response rating, Kochia: 100
ryegrass, Italian [8]
  Plant response rating, Ryegrass, Italian: 100
  Ryegrass, Italian plant response rating: 100
Ragweed [9]
  Plant response rating, Ragweed: 90
  Ragweed plant response rating: 90
oat, wild [10]
  Plant response rating, Oat, Wild: 90
  Oat, Wild plant response rating: 80
Green foxtail [11]; [24]
  Plant response rating, Foxtail, Green: 90
Green foxtail [11]; [25]
  Plant response rating, Foxtail, Green: 90
Barnyardgrass [12]
  Plant response rating, Barnyardgrass: 100
Barnyardgrass [12]; Test C
  Barnyardgrass plant response rating: 100
horseweed; [24]
  Plant response rating, Horseweed: 30
horseweed; [25]
  Plant response rating, Horseweed: 80
Ragweed [13]; [24]
  Plant response rating, Ragweed: 80
Ragweed [13]; [25]
  Plant response rating, Ragweed: 70
Barnyardgrass [14]
  Plant response rating, Barnyardgrass (Flood): 35
Soybean [15]
  Plant response rating, Soybean: 90
  Soybean plant response rating: 60
sedge, umbrella
  Plant response rating, Sedge, Umbrella (Flood): 95
Blackgrass [16]; [24]
  Plant response rating, Blackgrass: 90
Blackgrass [16]; [25]
  Plant response rating, Blackgrass: 90
galium; [24]
  Plant response rating, Galium: 90
galium; [25]
  Plant response rating, Galium: 100
pigweed, palmer [17]; [24]
  Plant response rating, Pigweed, Palmer: 90
pigweed, palmer [17]; [25]
  Plant response rating, Pigweed, Palmer: 100
Barnyardgrass [18]; [24]
  Plant response rating, Barnyardgrass: 30
Barnyardgrass [18]; [25]
  Plant response rating, Barnyardgrass: 70
Wheat [19]
  Plant response rating, Wheat: 60
  Wheat plant response rating: 30
Kochia [20]
  Plant response rating, Kochia: 100
  Kochia plant response rating: 80
Wheat [21]; [24]
  Plant response rating, Wheat: 30
Wheat [21]; [25]
  Plant response rating, Wheat: 50
Blackgrass [22]
  Plant response rating, Blackgrass: 60
  Blackgrass plant response rating: 40
rice
  Plant response rating, Rice (Flood): 0
ryegrass, Italian [23]; [24]
  Plant response rating, Ryegrass, Italian: 80
ryegrass, Italian [23]; [25]
  Plant response rating, Ryegrass, Italian: 90

## Cc1ccc(-n2cnc(C3(C(F)(F)F)CCC3)n2)cc1C(=O)N1C[C@H](C)Oc2c(Cl)cccc21 [Compound 168]
Soybean [1]; [24]
  Plant response rating, Soybean: 100
Soybean [1]; [25]
  Plant response rating, Soybean: 100
oat, wild [2]; [24]
  Plant response rating, Oat, Wild: 0
oat, wild [2]; [25]
  Plant response rating, Oat, Wild: 0
Corn [3]
  Corn plant response rating: 0
Green foxtail [4]
  Plant response rating, Foxtail, Green: 100
  Foxtail, Green plant response rating: 50
pigweed, palmer [5]
  Plant response rating, Pigweed, Palmer: 100
  Pigweed, Palmer plant response rating: 100
ducksalad
  Plant response rating, Ducksalad (Flood): 0
Corn [6]; [24]
  Plant response rating, Corn: 10
Corn [6]; [25]
  Plant response rating, Corn: 10
Kochia [7]; [24]
  Plant response rating, Kochia: 80
Kochia [7]; [25]
  Plant response rating, Kochia: 80
ryegrass, Italian [8]
  Plant response rating, Ryegrass, Italian: 90
  Ryegrass, Italian plant response rating: 70
Ragweed [9]
  Plant response rating, Ragweed: 60
  Ragweed plant response rating: 30
oat, wild [10]
  Plant response rating, Oat, Wild: 20
  Oat, Wild plant response rating: 0
Green foxtail [11]; [24]
  Plant response rating, Foxtail, Green: 20
Green foxtail [11]; [25]
  Plant response rating, Foxtail, Green: 30
Barnyardgrass [12]
  Barnyardgrass plant response rating: 50
  Plant response rating, Barnyardgrass: 70
horseweed; [24]
  Plant response rating, Horseweed: 0
horseweed; [25]
  Plant response rating, Horseweed: 10
Ragweed [13]; [24]
  Plant response rating, Ragweed: 60
Ragweed [13]; [25]
  Plant response rating, Ragweed: 70
Barnyardgrass [14]
  Plant response rating, Barnyardgrass (Flood): 0
Soybean [15]
  Plant response rating, Soybean: 60
  Soybean plant response rating: 60
sedge, umbrella
  Plant response rating, Sedge, Umbrella (Flood): 0
Blackgrass [16]; [24]
  Plant response rating, Blackgrass: 0
Blackgrass [16]; [25]
  Plant response rating, Blackgrass: 0
galium; [24]
  Plant response rating, Galium: 80
galium; [25]
  Plant response rating, Galium: 90
pigweed, palmer [17]; [24]
  Plant response rating, Pigweed, Palmer: 70
pigweed, palmer [17]; [25]
  Plant response rating, Pigweed, Palmer: 90
Barnyardgrass [18]; [24]
  Plant response rating, Barnyardgrass: 10
Barnyardgrass [18]; [25]
  Plant response rating, Barnyardgrass: 30
Wheat [19]
  Plant response rating, Wheat: 20
  Wheat plant response rating: 0
Kochia [20]
  Plant response rating, Kochia: 50
  Kochia plant response rating: 0
Wheat [21]; [24]
  Plant response rating, Wheat: 10
Wheat [21]; [25]
  Plant response rating, Wheat: 20
Blackgrass [22]
  Plant response rating, Blackgrass: 60
  Blackgrass plant response rating: 20
rice
  Plant response rating, Rice (Flood): 0
ryegrass, Italian [23]; [24]
  Plant response rating, Ryegrass, Italian: 20
ryegrass, Italian [23]; [25]
  Plant response rating, Ryegrass, Italian: 40

— patent US20260262643A1, “HERBICIDAL BENZOXAZINES” (FMC CORPORATION, priority 2022, published 2026)
